Patent publication US20240041042A1, “1-(PYRIDYL)-5-AZINYLPYRAZOLE DERIVATIVES, AND THEIR USE FOR CONTROL OF UNDESIRED PLANT GROWTH” (Bayer Aktiengesellschaft, priority 2020, published 2024)
Read-outs that look alike come from different tables or passages of the source.

Columns and labels:
Format in all cases: in vivo
[1] = system: Alopecurus myosuroides (ALOMY); test: Pre-emergence herbicidal action against ALOMY; conditions: 320 g/ha; scored visually after about 3 weeks; 100% = plants have died
Procedure, shortened: (§1)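 Herbicide applied to soil before seedling emergence, at 600 l/ha spray volume with 0.5% additive and rates up to 320 g/ha. Evaluation: visual percentage effect, about 3 weeks later, greenhouse-grown pots compared with untreated ones.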

[2] = system: Amaranthus retroflexus (AMARE); test: Pre-emergence herbicidal action against AMARE; conditions: 320 g/ha, visual scoring after about 3 weeks vs untreated controls
Procedure, shortened: as §1

[3] = system: Digitaria sanguinalis (DIGSA); test: Pre-emergence herbicidal action against DIGSA; conditions: dosage 320 g/ha
Procedure, shortened: as §1

[4] = system: Lolium rigidum (LOLRI); test: Pre-emergence herbicidal action against LOLRI; conditions: dosage 320 g/ha
Procedure, shortened: as §1

[5] = system: Polygonum convolvulus (POLCO); test: Pre-emergence herbicidal action against POLCO
Procedure, shortened: as §1

[6] = system: Viola tricolor (VIOTR); test: Pre-emergence herbicidal action against VIOTR
Procedure, shortened: as §1

[7] = system: Glycine max (GLXMA); conditions: pre-emergence, 80 g/ha, crop plant compatibility, in comparison to untreated controls
Procedure, shortened: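 Scoring: visual, % of untreated control, about 3 weeks after a pre-emergence application to the soil surface. Application used WP or EC formulations diluted in water with 0.5% additive at 600 l/ha; dosage levels are marked by suffixes a, b and c.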

[8] = system: Alopecurus myosuroides (ALOMY); test: Post-emergence herbicidal action against ALOMY; conditions: 320 g/ha, visual rating about 3 weeks after treatment vs untreated controls (100% = plants have died, 0% = like control plants)
Procedure, shortened: (§2)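 Rates were 320 g/ha or below, applied as aqueous WP/EC spray with 0.5% additive (600 l/ha) onto one-leaf-stage plants. About 3 weeks later in the greenhouse, damage was scored visually against untreated plants on a 0–100% scale, where 100% means plants died.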

[9] = system: Amaranthus retroflexus (AMARE); test: Post-emergence herbicidal action against AMARE; conditions: 320 g/ha, visual rating about 3 weeks after treatment
Procedure, shortened: as §2

[10] = system: Echinochloa crus-galli (ECHCG); test: Post-emergence herbicidal action against ECHCG; conditions: dosage 320 g/ha
Procedure, shortened: as §2

[11] = system: Lolium rigidum (LOLRI); test: Post-emergence herbicidal action against LOLRI; conditions: dosage 320 g/ha
Procedure, shortened: as §2

[12] = system: Pharbitis purpurea (PHBPU); test: Post-emergence herbicidal action against PHBPU; conditions: dosage 320 g/ha
Procedure, shortened: as §2

[13] = system: Polygonum convolvulus (POLCO); test: Post-emergence herbicidal action against POLCO; conditions: dosage 320 g/ha
Procedure, shortened: as §2

[14] = system: Viola tricolor (VIOTR); test: Post-emergence herbicidal action against VIOTR; conditions: 320 g/ha
Procedure, shortened: as §2

[15] = system: Oryza sativa (ORYSA); conditions: crop plant compatibility, effect in comparison to untreated controls
Procedure, shortened: (§3)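 Foliar application at the one-leaf stage: WP/EC formulation, 0.5% additive, 600 l/ha water. Greenhouse-grown in sandy loam. Endpoint is visual % injury relative to untreated controls at about 3 weeks.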

[16] = system: Zea mays (ZEAMX); conditions: crop plant compatibility, 80 g/ha, effect vs untreated controls
Procedure, shortened: as §3

[17] = system: Echinochloa crus-galli (ECHCG); test: Pre-emergence herbicidal action against ECHCG; conditions: dosage 320 g/ha
Procedure, shortened: as §1

[18] = system: Pharbitis purpurea (PHBPU); test: Pre-emergence herbicidal action against PHBPU; conditions: dosage 320 g/ha
Procedure, shortened: as §1

[19] = system: Setaria viridis (SETVI); test: Pre-emergence herbicidal action against SETVI; conditions: dosage 320 g/ha
Procedure, shortened: as §1

[20] = system: Setaria viridis (SETVI); test: Post-emergence herbicidal action against SETVI; conditions: dosage 320 g/ha
Procedure, shortened: as §2

[21] = system: Verconica persica (VERPE); test: Post-emergence herbicidal action against VERPE
Procedure, shortened: as §2

[22] = system: Triticum aestivum (TRZAS); conditions: crop plant compatibility, 80 g/ha, effect vs untreated controls
Procedure, shortened: as §3

Pre-emergence action against GLXMA in % [7]	Post-emergence action against ORYSA in % ([15]; 80 g/ha)	Post-emergence action against ZEAMX in % [16]	Structure (SMILES)	Pre-emergence action against AMARE in % [2]	Pre-emergence action against POLCO in % ([5]; dosage 320 g/ha)	Pre-emergence action against VIOTR in % ([6]; 320 g/ha, Viola tricolor)	Post-emergence action against AMARE in % [9]	Post-emergence action against ECHCG in % [10]	Post-emergence action against PHBPU in % [12]	Post-emergence action against POLCO in % [13]	Post-emergence action against VIOTR in % [14]	other results
20%	0%	10%	C[C@@H](Oc1nn(-c2ccccn2)c(-c2ccc(Cl)nc2)c1Cl)C(=O)O [Example I-238]	80%	80%	90%	80%	80%	80%	80%	80%	Pre-emergence action against ALOMY [1]: 90%; Pre-emergence action against DIGSA in % [3]: 90%; Pre-emergence action against LOLRI in % [4]: 90%; Post-emergence action against ALOMY in % [8]: 80%; Post-emergence action against LOLRI in % [11]: 80%; Post-emergence action against ORYSA in % ([15]; 320 g/ha): 10%
20%	0%	0%	O=C(O)COc1nn(-c2ncccc2C(F)(F)F)c(-c2cncc(F)c2)c1Br [Example I-230]	80%	90%	90%	90%	80%	90%	80%	80%	Pre-emergence action against ECHCG in % [17]: 90%; Pre-emergence action against PHBPU in % [18]: 90%; Pre-emergence action against POLCO in % ([5]; dosage 80 g/ha): 80%; Pre-emergence action against SETVI in % [19]: 100%; Pre-emergence action against VIOTR in % ([6]; dosage 80 g/ha): 80%; Post-emergence action against SETVI in % [20]: 80%; Post-emergence action against VERPE in % ([21]; 320 g/ha, VERPE): 80%; Post-emergence action against VERPE in % ([21]; dosage 80 g/ha): 80%; Post-emergence action against TRZAS in % [22]: 10%
